Measured values published in patent US20230000808A1, “COMPOSITIONS AND METHODS EXCLUDING OR WITH REDUCED GLUTAMINE FOR THE TREATMENT OF HEMOGLOBINOPATHIES AND THALASSEMIAS” (AXCELLA HEALTH INC., priority 2019, published 2023).

What was measured:
[1] = tested on: sickle cell disease patient blood; experiment: ROS (DCF fluorescence) in sickle cell disease patient whole blood; format: cell-based, human
Procedure: (§1) Whole blood samples were appropriately diluted in Ca^2+- and Mg^2+-free Dulbecco's phosphate buffered saline (DPBS, Life Technologies) and the concentration of erythrocytes (RBC/mL) was measured on a Cellometer K2 Fluorescent Viability Cell Counter according to the manufacturer's RBC/AOPI protocol (Nexcelom Biosciences).
(§2) Cells were then diluted to 1×10^6 RBC/mL into either prewarmed 37° C. […] 2′-7′-dichlorofluorescin diacetate (DCF, Millipore Sigma), 20 mM in dimethyl sulfoxide (DMSO, Fisher) were added to a working concentration of 100 μM. Cells were incubated with dye for 15 minutes at 37° C., 5% CO2 in a tissue culture incubator, washed once, and resuspended in the 0.9 volumes of the same prewarmed 37° C. buffer with 5 minute spins at 500×g, accel/decal=5 in a swing arm centrifuge (Beckman Coulter). […] Where possible due to solubility constrains, pH-7.4-adjusted stock solutions of amino acids were used. Wells were mixed by pipetting and plates incubated at 37° C., 5% CO2 in a tissue culture incubator for 30 minutes. Optionally, 40 mM H2O2 (Millipore Sigma) freshly prepared in the same buffer was added to bring the concentration to 2 mM, wells mixed by pipetting, and plates were incubated an additional 30, 60, 120, or 240 minutes before fluorescence measurement of ROS signal on a Synergy H4 (BioTek) microplate reader with excitation=488 nm and emission=530 nm, and gain either set to autogain, 75, or 100.

[2] = tested on: whole blood from healthy controls; experiment: ROS (DCF fluorescence) in whole blood of healthy control donors, H2O2-induced; format: cell-based, human
Procedure: as §1, §2

[3] = tested on: RBCs of healthy whole blood; experiment: RBC deformability (Elongation Index, LORRCA ektacytometry), ex vivo TBHP oxidation of healthy whole blood; format: cell-based, human; conditions: healthy donor 2, single amino acid treatments
Description: Whole blood from healthy African American and/or Hispanic donors was obtained from Research Blood Components, LLC based on the following donor selection criteria: Adult age (between 18 and 50 years), normal BMI (<30), and absence of other confounding clinical conditions. Whole blood from SCD donors were obtained from BioIVT based on the following donor selection criteria: Patients with genotypes HbSS, HbSC, HbS/β^0 and at least 1-2 months gap since last blood transfusion. Whole blood was shipped on ice on the same day as blood draw. Upon receipt, the blood sample was aliquoted and stored in the refrigerator until used for studies.
RBC deformability measurements were conducted with the Laser Optical Rotational Red Cell Analyzer (LORRCA) from RR Mechatronics in a temperature-controlled environment (37° C.). Briefly, an even layer of RBCs suspended in polyvinylpyrrolidone (PVP) is subjected to shear stress gradient (0.3 to 30 Pa) through two concentric cylinders and the resulting changes in RBC shape or deformability are measured by a laser beam diffraction pattern. The captured images of RBC shape in response to increasing shear stress are then analyzed by the LORRCA program to calculate Elongation Index (EI).
Healthy RBCs have higher deformability ≥0.5 EI and SCD RBCs have lower deformability or EI values as studied by LORRCA ektacytometry in the field. […] The induced hemolysis model in this disclosure involves use of tert-butyl hydroperoxide (TBHP) to lower EI of RBCs.
The ex vivo hemolysis study disclosed here involves overnight treatment of whole blood with vehicle as a control and specific amino acids followed by rapid oxidation (5 min) with TBHP. Method for oxidation of whole blood with tert-butyl hydroperoxide has been used in prior literature (Diederich L, et al, Front Physiol. 2018 May 11; 9:332). RBC deformability or shape changes are then measured with LORRCA ektacytometry.
Whole blood aliquots stored in the fridge were brought up to room temperature while gently shaking on a rocker at low speed for an hour to ensure gradual and uniform suspension of red blood cells prior to deformability measurements. Vehicle control used in the study was 1× Dulbecco's […]) and amino acids disclosed herein were added (at either final 10× or 2.5 mM concentration as indicated) to corresponding vehicle and amino acid treatment conditions. The samples were then incubated overnight at 37° C. The next day, 25 μl of whole blood was taken from each treatment condition and added to 5 mL Elon ISO viscous solution from RR Mechatronics. The sample was inverted 15-20 times to ensure proper mixing of the treated RBCs with the Elon ISO solution followed by loading the sample on LORRCA and capturing RBC deformability or shape measurements over the applied shear gradient. The remaining whole blood treatments were returned to incubator (37° C.) until deformability measurements were completed for all treatments. To the remaining whole blood treatment samples, TBHP solution (5.0-6.0 M in Decane, Sigma) was added at 2.5 mM final concentration from a 100 mM freshly prepared stock and incubated for further 5 min at 37° C. 25 μl of this TBHP-treated sample was immediately removed at the end of the 5 min incubation and added to the Elon ISO solution for RBC deformability measurement after oxidation. Included in the Tables 13-15 are EI measurements at ½ EImax shear stress 1.69 Pa and EImax shear stress 30 Pa from these studies and FIG. 1 captures EI measurements for all shear stress points for the indicated treatment conditions.

TNFα = experiment: LPS-induced TNF-α secretion in primary human monocyte-derived macrophages (ELISA); format: cell-based; conditions: LPS, baseline subtracted
Procedure: (§3) Primary human PMBC derived macrophages were seeded on day 0 at 3.0×10^4 cells per well in 96-well microplates (ThermoFisher) in Dulbecco's Modified Eagle Medium (DMEM) (Gibco) supplemented with penicillin-streptomycin (Hyclone) and 10% heat inactivated fetal bovine serum (HI-FBS) (Atlanta Bio) and incubated overnight at 37° C., 5% CO2. On day 1, cells were washed once with 150 μl per well DPBS (Gibco) and treated with 75 μl of: • a. […] The same medium described above with one amino acid at various concentrations including complete dropout. […] On day 3, the supernatant was collected and immediately frozen in −80° C. freezer. Cells were washed once with 150 μl DPBS and viability was assessed using the WST-8 Cell Proliferation Cytotoxicity Assay (Dojindo). […] Protein levels in supernatant samples were analyzed by ELISA for IL-6 and TNFα using commercially available kits (R&D Systems) according to manufacturer-supplied protocols.

IL-6 [4] = experiment: LPS-induced IL-6 secretion in primary human monocyte-derived macrophages (ELISA); format: cell-based; conditions: for Donor 1 IL-6 Measurements Mean / Donor 2 IL-6 Measurements Mean / Donor 3 IL-6 Measurements Mean: LPS, baseline subtracted
Procedure: as §3

ICAM-1 = ICAM-1 cell integrated intensity in HLMVEC treated with TNF-α (immunofluorescence); format: cell-based, human; conditions: HLMVEC + 0.5 ng/mL TNF-α, 24 h; amino acids 20x HMDB, Nac/Cit/Car 5 mM as bracketed
Procedure: (§4) Primary Human Lung Microvascular Endothelial Cells (HLMVEC; Lonza) were seeded at 6,000 cells per well in Endothelial Cell Growth Basal Medium-2 (Lonza) supplemented with Fetal Bovine Serum (FBS; Lonza), human EGF (Lonza), human VEGF (Lonza), R3-Insulin-like Growth Factor-1 (Lonza), ascorbic acid (Lonza), hydrocortisone (Lonza), human FGF-beta (Lonza), and gentamicin/amphotericin-b (Lonza) in a 96-well plate (Thermo Fisher). The cells were incubated for 45 minutes at room temperature, then incubated overnight at 37° C./5% CO2.
(§5) Following overnight incubation, cell were washed once with 150 μL of Dulbecco's phosphate buffered saline (DPBS; Gibco), and then treated with Endothelial Basal Medium MCB-131 (amino acid, glucose, sodium pyruvate, and phenol red free; US Biologicals) containing a defined custom amino acid concentration based on physiological concentrations in blood of patients with SCD (thus recapitulating observed metabolic imbalances such as the depletion of certain essential amino acids including arginine and aspartate and enrichment of certain non-essential amino acids including glutamate and asparagine), dialyzed FBS (Hyclone), human EGF (Lonza), human VEGF (Lonza), R3-Insulin-like Growth Factor-1 (Lonza), ascorbic acid (Lonza), hydrocortisone (Lonza), human FGF-beta (Lonza), and gentamicin/amphotericin-b (Lonza), glucose, 10 mM HEPES, sodium pyruvate, and sodium bicarbonate supplemented with one of the following: • a. PBS (vehicle control), • b. 0.5 ng/mL Tumor Necrosis Factor alpha (TNFα) and PBS, or; • c. 0.5 ng/mL TNF-α and amino acid treatments at 20× mean physiological concentrations in plasma based on values published in the Human Metabolome Database (HMDB) in PBS.
(§6) After 24 hours of treatment, cells were washed once with 150 μL of DPBS (Gibco), then fixed with 4% paraformaldehyde. Following fixation, cells were stained with anti-ICAM-1 [MEM-111] (mouse IgG2a anti-human; abcam) and anti-VCAM1 [1.4C3] (mouse IgG1, K anti-human; abcam) primary antibodies at 1000×, and 100× dilutions respectively. Cells were then stained with Goat anti-Mouse IgG2a Cross-Adsorbed Secondary Antibody, Alexa Fluor 594 (Invitrogen) and Goat anti-Mouse IgG1 Cross-Adsorbed Secondary Antibody, Alexa Fluor 647 (Invitrogen) secondary antibodies. Nuclei were stained with Hoechst 3342 (Life Technologies).
(§7) Antibody binding was detected by fluorescence microscopy using a high content imager (Molecular Devices). Images were analyzed using MetaXpress 6 software to determine the integrated intensity per cell for each wavelength corresponding to ICAM-1 or VCAM-1.

HLMVEC = experiment: META-rank score, composite of VCAM1, ICAM1 and IL6 in the HLMVEC model; format: cell-based, human; conditions: HLMVEC + TNF-α; lower score = more optimal; 20x HMDB / 5 mM
Procedure: The ability of single amino acids and combinations to simultaneously impact these phenotypes was measured by a META-rank score (Tables 17 and 18). META-rank score is a composite measure that considers the optimal impact on all 3 phenotypes (e.g. decrease VCAM1, ICAM1, and IL6) in the HLMVEC model.

IL-6 [5] = experiment: Secreted IL-6 in HLMVEC treated with TNF-α (FirePlex); format: cell-based, human; conditions: HLMVEC + 0.5 ng/mL TNF-α, 24 h; amino acids 20x HMDB, Nac/Cit/Car 5 mM as bracketed
Procedure: as §4, §5
Supernatants were analyzed for IL-6 concentrations using a Human Cytokines FirePlex-HT Panel 1 kit (abcam) according to the manufacturer-supplied instructions. Particles were imaged on a high content imager (Molecular Devices), and results were interpolated from a standard curve with FirePlex Analysis Workbench Software (abcam) according manufacturer's recommendations.

VCAM-1 = VCAM-1 cell integrated intensity in HLMVEC treated with TNF-α (immunofluorescence); format: cell-based, human
Procedure: as §4, §5, §6, §7

[6] = Donor 1, Conc. 109 μM (baseline)

N[C@@H](Cc1c[nH]c2ccccc12)C(=O)O [tryptophan]
ROS signal ([1]; 10×): increased
ROS signal ([2]; healthy donor blood, 10×): increased

N=C(N)NCCC[C@H](N)C(=O)O [Arginine]
EI over vehicle control, both ½ EImax and EImax [3]: higher than the vehicle
TNF-α Measurements Mean (TNFα; [6]): 0
TNF-α Measurements Mean (TNFα; Donor 1, Conc. 1088 μM): −24.33
TNF-α Measurements Mean (TNFα; Donor 1, Conc. 2720 μM): 5.12
TNF-α Measurements Mean (TNFα; Donor 1, Conc. 5440 μM): 62.06
TNF-α Measurements Mean (TNFα; Donor 2, Conc. 109 μM (baseline)): 1.42E−14
TNF-α Measurements Mean (TNFα; Donor 2, Conc. 1088 μM): −12.7222
TNF-α Measurements Mean (TNFα; Donor 2, Conc. 2720 μM): −3.763
TNF-α Measurements Mean (TNFα; Donor 2, Conc. 5440 μM): −0.5738
TNF-α Measurements Mean (TNFα; Donor 3, Conc. 109 μM (baseline)): 3.55E−15
TNF-α Measurements Mean (TNFα; Donor 3, Conc. 1088 μM): 3.131
TNF-α Measurements Mean (TNFα; Donor 3, Conc. 2720 μM): −0.9669
TNF-α Measurements Mean (TNFα; Donor 3, Conc. 5440 μM): −1.767
Donor 1 IL-6 Measurements Mean (IL-6 [4]; [6]): 0
Donor 1 IL-6 Measurements Mean (IL-6 [4]; Donor 1, Conc. 1088 μM): −181.36
Donor 1 IL-6 Measurements Mean (IL-6 [4]; Donor 1, Conc. 2720 μM): −186.57
Donor 1 IL-6 Measurements Mean (IL-6 [4]; Donor 1, Conc. 5440 μM): 357.4394
effect on LPS-induced IL-6 secretion (IL-6 [4]; Donor 1, Two Way ANOVA Dunnett): increased
Donor 2 IL-6 Measurements Mean (IL-6 [4]; Conc. 109 μM (baseline)): 2.37E−15
Donor 2 IL-6 Measurements Mean (IL-6 [4]; Conc. 1088 μM): −9.701
Donor 2 IL-6 Measurements Mean (IL-6 [4]; Conc. 2720 μM): −13.6102
Donor 2 IL-6 Measurements Mean (IL-6 [4]; Conc. 5440 μM): −12.4164
Donor 3 IL-6 Measurements Mean (IL-6 [4]; Conc. 109 μM (baseline)): 0
Donor 3 IL-6 Measurements Mean (IL-6 [4]; Conc. 1088 μM): 31.5786
Donor 3 IL-6 Measurements Mean (IL-6 [4]; Conc. 2720 μM): −7.503
Donor 3 IL-6 Measurements Mean (IL-6 [4]; Conc. 5440 μM): −6.81

N[C@@H](CS)C(=O)O [cysteine]
ROS measured in whole blood ([1]; both treated with H2O2 and untreated, in DPBS): reduced
ROS measured in whole blood ([2]; healthy control donors treated with H2O2, dose-responsive): reduced

NC(=O)NCCC[C@H](N)C(=O)O [Cit, citrulline]
EI over vehicle control, both ½ EImax and EImax [3]: higher than the vehicle
ICAM-1 Cell Integrated Intensity Median (ICAM-1): −0.118
Meta-Rank (Table 18) (HLMVEC): 8
Metarank (Table 17) (HLMVEC): 16
Secreted IL6 Median (IL-6 [5]): −0.270
VCAM-1 expression in HLMVEC (VCAM-1; 0.5 ng/mL TNF-α, amino acids at 20× HMDB, 24 hours): moderate effect
VCAM-1 Cell Integrated Intensity Median (VCAM-1; HLMVEC + 0.5 ng/mL TNF-α, 24 h, amino acids 20x HMDB, Nac/Cit/Car 5 mM as bracketed): −0.157
